Reference: patent publication US12479847B2 (DANA-FARBER CANCER INSTITUTE, INC., priority 2019, dated 2025)

Columns and labels:
Assay in all cases: KINOMEscan (ScanMAX) kinase profiling
Type in all cases: binding
[1] = molecular target: T1, panel of 468 kinases (Homo sapiens, UniProt Q00535); conditions: CDK5; 1 μM; read-out: % control
T1 construct: purchased KINOMEscan (ScanMAX) service

[2] = molecular target: T2, panel of 468 kinases (Homo sapiens, UniProt P21127); conditions: CDC2L1; 1 μM; read-out: % control
T2 construct: purchased KINOMEscan (ScanMAX) service

[3] = molecular target: T3, panel of 468 kinases (Homo sapiens, UniProt Q9UBF8); conditions: PIK4CB; 1 μM; read-out: % control
T3 construct: purchased KINOMEscan (ScanMAX) service

[4] = molecular target: T4, panel of 468 kinases (Homo sapiens, UniProt P80192); conditions: MLK1; 1 μM; read-out: % control
T4 construct: purchased KINOMEscan (ScanMAX) service

[5] = molecular target: T5, panel of 468 kinases (Homo sapiens, UniProt O94806); conditions: PRKD3; 1 μM; read-out: % control
T5 construct: purchased KINOMEscan (ScanMAX) service
T5 sequence (O94806 1-890): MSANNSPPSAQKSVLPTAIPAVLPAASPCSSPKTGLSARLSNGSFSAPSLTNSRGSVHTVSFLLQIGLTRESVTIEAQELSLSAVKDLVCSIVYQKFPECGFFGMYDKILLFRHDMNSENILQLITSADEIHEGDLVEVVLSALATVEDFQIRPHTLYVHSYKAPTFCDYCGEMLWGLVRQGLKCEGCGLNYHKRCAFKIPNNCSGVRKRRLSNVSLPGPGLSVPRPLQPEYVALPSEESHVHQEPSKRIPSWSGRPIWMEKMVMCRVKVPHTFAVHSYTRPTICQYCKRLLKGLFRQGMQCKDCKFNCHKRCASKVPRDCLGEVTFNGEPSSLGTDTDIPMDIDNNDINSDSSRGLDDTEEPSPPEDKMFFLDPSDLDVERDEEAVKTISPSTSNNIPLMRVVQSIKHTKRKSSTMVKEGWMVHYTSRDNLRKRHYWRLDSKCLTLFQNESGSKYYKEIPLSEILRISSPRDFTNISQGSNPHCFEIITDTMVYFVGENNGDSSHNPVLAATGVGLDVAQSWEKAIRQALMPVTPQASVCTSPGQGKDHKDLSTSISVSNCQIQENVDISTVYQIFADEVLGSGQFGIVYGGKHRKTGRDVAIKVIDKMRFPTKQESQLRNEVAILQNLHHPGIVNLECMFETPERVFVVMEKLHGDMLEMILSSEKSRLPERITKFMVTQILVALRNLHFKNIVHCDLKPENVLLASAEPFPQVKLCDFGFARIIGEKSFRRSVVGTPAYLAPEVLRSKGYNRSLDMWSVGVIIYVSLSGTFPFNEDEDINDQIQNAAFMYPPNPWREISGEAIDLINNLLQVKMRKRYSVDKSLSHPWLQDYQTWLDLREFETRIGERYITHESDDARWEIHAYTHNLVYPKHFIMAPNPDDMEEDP

[6] = molecular target: T6, panel of 468 kinases (Homo sapiens, UniProt Q04771); conditions: ACVR1; 1 μM; read-out: % control
T6 construct: purchased KINOMEscan (ScanMAX) service
T6 sequence (Q04771 21-509): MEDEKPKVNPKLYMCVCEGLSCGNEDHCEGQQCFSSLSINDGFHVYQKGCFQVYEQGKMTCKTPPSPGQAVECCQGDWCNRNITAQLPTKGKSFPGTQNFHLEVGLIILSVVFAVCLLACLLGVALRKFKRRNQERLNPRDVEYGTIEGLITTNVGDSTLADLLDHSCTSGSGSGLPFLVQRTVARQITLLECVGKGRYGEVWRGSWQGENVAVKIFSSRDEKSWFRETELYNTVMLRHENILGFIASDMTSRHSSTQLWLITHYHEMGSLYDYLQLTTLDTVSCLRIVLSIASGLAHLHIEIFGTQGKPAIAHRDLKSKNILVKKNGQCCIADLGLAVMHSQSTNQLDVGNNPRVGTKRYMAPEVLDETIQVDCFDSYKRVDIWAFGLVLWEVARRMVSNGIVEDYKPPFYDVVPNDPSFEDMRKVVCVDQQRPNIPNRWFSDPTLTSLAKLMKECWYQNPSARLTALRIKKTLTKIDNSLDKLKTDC

[7] = molecular target: T7, panel of 468 kinases (Homo sapiens, UniProt P29320); conditions: EPHA3; 1 μM; read-out: % control
T7 construct: purchased KINOMEscan (ScanMAX) service
T7 sequence (P29320 21-983): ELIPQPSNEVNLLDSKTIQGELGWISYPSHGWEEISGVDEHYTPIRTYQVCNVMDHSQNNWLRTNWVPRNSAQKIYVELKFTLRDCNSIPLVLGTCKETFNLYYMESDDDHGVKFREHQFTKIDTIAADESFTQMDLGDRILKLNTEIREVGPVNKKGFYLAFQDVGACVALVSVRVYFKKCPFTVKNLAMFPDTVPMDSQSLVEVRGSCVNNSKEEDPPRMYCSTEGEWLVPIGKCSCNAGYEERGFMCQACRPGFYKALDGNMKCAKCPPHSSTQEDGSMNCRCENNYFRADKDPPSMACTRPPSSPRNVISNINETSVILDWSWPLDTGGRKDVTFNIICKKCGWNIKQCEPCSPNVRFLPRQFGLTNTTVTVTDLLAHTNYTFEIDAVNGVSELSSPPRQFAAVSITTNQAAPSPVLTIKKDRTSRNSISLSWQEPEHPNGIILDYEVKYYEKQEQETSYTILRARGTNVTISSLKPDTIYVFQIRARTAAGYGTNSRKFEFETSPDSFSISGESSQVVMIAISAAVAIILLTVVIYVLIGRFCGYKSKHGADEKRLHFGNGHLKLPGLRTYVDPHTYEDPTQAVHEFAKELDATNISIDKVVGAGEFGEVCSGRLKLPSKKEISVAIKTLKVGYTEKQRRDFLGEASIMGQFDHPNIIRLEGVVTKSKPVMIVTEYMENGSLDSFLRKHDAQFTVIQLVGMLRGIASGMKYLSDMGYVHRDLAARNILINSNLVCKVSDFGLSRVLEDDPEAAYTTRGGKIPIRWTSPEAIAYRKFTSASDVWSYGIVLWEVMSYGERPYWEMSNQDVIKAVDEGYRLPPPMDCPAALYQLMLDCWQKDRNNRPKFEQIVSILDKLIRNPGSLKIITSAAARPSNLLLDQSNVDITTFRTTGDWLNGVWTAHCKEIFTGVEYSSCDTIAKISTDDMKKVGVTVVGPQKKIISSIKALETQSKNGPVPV

T2 sequence (P21127 whole entry): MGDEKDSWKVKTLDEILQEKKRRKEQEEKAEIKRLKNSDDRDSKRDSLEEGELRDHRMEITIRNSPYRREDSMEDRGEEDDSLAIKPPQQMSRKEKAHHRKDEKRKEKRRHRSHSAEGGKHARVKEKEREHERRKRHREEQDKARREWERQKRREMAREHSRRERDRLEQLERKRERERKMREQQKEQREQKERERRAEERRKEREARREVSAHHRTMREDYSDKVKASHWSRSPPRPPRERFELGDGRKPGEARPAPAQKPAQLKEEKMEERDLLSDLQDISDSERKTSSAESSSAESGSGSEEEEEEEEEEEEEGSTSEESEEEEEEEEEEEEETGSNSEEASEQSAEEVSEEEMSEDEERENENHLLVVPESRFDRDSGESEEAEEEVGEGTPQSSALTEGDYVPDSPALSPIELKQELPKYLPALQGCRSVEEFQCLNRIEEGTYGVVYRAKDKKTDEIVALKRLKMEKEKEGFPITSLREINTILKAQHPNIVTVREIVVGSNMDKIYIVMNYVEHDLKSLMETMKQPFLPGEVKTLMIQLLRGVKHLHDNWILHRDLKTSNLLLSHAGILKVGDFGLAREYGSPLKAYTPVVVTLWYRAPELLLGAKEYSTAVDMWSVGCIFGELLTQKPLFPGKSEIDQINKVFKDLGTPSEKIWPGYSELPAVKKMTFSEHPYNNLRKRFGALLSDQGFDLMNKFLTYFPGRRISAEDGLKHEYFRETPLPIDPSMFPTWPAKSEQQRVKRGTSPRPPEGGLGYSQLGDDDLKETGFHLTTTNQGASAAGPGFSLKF
T1 sequence (Q00535 whole entry): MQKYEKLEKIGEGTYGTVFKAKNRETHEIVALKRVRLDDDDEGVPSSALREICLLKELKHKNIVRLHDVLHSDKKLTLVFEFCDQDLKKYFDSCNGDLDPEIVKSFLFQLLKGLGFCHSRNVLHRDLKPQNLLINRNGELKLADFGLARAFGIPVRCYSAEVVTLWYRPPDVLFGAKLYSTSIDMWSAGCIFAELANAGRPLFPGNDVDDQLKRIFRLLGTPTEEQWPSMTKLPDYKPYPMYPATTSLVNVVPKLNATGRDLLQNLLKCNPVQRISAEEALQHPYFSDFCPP
T3 sequence (Q9UBF8 whole entry): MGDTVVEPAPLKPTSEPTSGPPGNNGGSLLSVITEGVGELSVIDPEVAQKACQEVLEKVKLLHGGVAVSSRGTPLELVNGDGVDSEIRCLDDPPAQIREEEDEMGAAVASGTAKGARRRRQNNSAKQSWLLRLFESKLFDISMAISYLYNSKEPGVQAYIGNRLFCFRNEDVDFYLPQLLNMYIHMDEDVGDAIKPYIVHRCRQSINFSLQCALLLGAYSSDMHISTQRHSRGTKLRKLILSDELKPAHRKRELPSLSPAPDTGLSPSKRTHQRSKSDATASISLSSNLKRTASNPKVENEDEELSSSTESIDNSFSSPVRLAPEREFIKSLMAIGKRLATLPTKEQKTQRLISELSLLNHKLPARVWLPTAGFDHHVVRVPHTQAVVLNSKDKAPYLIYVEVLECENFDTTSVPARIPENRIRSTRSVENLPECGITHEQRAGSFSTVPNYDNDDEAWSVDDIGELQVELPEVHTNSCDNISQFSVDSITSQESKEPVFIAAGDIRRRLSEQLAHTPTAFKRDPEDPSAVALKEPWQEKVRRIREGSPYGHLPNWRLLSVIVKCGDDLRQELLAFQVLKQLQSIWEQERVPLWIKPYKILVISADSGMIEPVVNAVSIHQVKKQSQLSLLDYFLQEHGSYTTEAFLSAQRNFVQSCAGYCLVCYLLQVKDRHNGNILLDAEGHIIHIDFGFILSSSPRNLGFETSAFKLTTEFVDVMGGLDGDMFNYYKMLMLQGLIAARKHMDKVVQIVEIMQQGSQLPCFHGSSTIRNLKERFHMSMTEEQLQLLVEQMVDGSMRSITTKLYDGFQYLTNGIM
T4 sequence (P80192 whole entry): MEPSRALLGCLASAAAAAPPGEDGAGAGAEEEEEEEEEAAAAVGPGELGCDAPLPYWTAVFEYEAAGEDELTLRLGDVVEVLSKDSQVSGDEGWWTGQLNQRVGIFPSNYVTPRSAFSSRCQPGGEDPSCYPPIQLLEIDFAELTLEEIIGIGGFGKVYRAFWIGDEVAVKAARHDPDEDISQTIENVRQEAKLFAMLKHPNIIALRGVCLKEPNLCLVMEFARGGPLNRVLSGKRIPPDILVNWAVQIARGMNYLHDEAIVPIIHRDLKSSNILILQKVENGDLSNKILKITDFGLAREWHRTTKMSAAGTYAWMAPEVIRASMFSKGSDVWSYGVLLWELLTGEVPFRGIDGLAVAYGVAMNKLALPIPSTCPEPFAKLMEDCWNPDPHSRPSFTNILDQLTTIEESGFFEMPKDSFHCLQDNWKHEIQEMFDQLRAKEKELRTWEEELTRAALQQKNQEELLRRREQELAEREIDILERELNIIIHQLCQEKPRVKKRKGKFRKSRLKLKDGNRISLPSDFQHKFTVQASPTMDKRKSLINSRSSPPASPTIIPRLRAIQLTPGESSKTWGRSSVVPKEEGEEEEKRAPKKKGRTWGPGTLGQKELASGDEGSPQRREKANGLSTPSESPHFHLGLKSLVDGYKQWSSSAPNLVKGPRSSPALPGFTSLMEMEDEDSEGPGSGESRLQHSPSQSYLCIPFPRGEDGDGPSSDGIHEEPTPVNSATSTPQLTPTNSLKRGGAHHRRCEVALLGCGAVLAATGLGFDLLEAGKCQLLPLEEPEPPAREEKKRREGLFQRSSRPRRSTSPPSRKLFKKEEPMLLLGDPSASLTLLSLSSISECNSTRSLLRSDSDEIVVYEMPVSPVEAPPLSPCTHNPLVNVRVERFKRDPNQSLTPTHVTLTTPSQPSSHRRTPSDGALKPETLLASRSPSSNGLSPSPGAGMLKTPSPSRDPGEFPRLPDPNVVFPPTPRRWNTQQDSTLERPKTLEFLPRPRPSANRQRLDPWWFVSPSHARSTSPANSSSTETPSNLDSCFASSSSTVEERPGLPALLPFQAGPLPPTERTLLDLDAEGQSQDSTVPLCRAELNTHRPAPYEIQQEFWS

SMILES | remaining binding at 1 µM [1] | remaining binding at 1 µM [2] | remaining binding at 1 µM [3] | remaining binding at 1 µM [4] | remaining binding at 1 µM [5] | remaining binding at 1 µM [6] | remaining binding at 1 µM [7]
CNc1nc(Nc2ccc(S(=O)(=O)N3CCC(N4CCOCC4)CC3)cc2OC)nc2[nH]cc(Cl)c12 [Compound 12, 5-chloro-N2-(2-methoxy-4-((4-morpholinopiperidin-1-yl)sulfonyl)phenyl)-N4-methyl-7H-pyrrolo[2,3-d]pyrimidine-2,4-diamine] | 100% | 100% | 100% | 100% | 28% | 100% | 100%
CNc1nc(Nc2ccc(C(=O)N3CCC(N4CCOCC4)CC3)c3c2OCO3)nc2[nH]cc(Cl)c12 [Compound 75, (7-((5-chloro-4-(methylamino)-7H-pyrrolo[2,3-d]pyrimidin-2-yl)amino)benzo[d][1,3]dioxol-4-yl)(4-morpholinopiperidin-1-yl)methanone] | 100% | 100% | 100% | 91% | 4% | 100% | 100%
CNc1nc(Nc2ccc(P3(=O)CCN(C4CCOCC4)CC3)cc2OC)nc2[nH]cc(Cl)c12 [Compound 77, 4-(4-((5-chloro-4-(methylamino)-7H-pyrrolo[2,3-d]pyrimidin-2-yl)amino)-3-methoxyphenyl)-1-(tetrahydro-2H-pyran-4-yl)-1,4-azaphosphinane 4-oxide] | 100% | 100% | 100% | 98% | 13% | 100% | 100%
